Results: PubChem BioAssay AID743308 (Sanford-Burnham Center for Chemical Genomics, 2014)

Target: Low molecular weight phosphotyrosine protein phosphatase (Homo sapiens) (UniProt P24666)
Assay: LMPTP phosphatase inhibitors, colorimetric pNPP readout, dose response, orthogonal assay, biochemical, absorbance, pNPP substrate, LMPTP-A isoform, set 2 (AID 743308)
Conditions: recombinant LMPTP-A

Sequence of Low molecular weight phosphotyrosine protein phosphatase (Homo sapiens) (P24666 whole entry, looked up, canonical isoform): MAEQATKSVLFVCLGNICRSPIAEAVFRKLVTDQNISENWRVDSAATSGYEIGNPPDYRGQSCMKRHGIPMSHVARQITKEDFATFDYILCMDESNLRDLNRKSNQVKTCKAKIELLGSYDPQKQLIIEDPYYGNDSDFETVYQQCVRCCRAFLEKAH

## COc1ccc(-c2cc(NCCCN3CCCCC3)c3ccccc3n2)cc1
  IC50: 3.52 µM
